We go through 2 compounds from US20250064874A1, “Mushroom Spore, Cannabinoid, and Specified Compositions” (priority 2023, published 2025).

Experiment [1] has as its system neuronal cultures exposed to glutamate. The conditions noted are these: in vitro, isolated or synthetic CBD; cited from earlier work.
For experiment [2] the following is noted: isolated or synthetic CBD; cited from earlier work.
The subject of experiment [3] is shin splits, sciatica tight muscles, aching back pains, and circulation issues. The experiment is described as follows: Example 12 case report: soaking body in magnesium sulfate with or without Reishi spore powder. The conditions noted are these: body soaked 30 minutes in 20 gallons of hot water, 1 cup Magnesium sulfate. It counts as in vivo, human. As for the experimental part: The person tried soaking body in 1 cup of Magnesium sulfate with 20 gallons of hot water for 30 minutes. […] After 72 hours, the person soaked their body in 20 gallons of hot water comprising 1 cup of Magnesium sulfate in combination with 1000 mg of Reishi Mushroom Spore Powder, for 30 minutes.

For the compound `C=C(C)[C@@H]1CCC(C)=C[C@H]1c1c(O)cc(CCCCC)cc1O` [CBD, cannabidiol], the “prevention of toxicity of glutamate” value in experiment [1] is “could be prevented to some extent”. Moreover, the “difference between treated animals and placebo” value in experiment [2] is listed as “failed to find a difference”. With `O=S(=O)([O-])[O-].[Mg+2]` [Magnesium sulfate], the “improvement noticed (pain relief, sleep, mood, circulation, dexterity)” value in experiment [3] is on record as “slight improvement”.
